# Source: patent US5017618A, “Labile derivatives of ketone analogs of 3-substituted-1-alkylamino-2-propanols and their use as beta-adrenergic blockers” (priority 1989, dated 1991)
# Where a name gives a salt, the structure may show the parent alone.
# Key:
# [1] = tested on: isoprenaline-induced tachycardia; experiment: Effect on isoprenaline-induced tachycardia in rats (β-adrenergic antagonist activity); type: in vivo, rat (male Sprague-Dawley); conditions: for β-antagonist activity: dose levels used; for β-adrenergic antagonist activity against isoprenaline-tachycardia: rats, 6 mg/kg i.v., isoprenaline 50 μg/kg s.c., FIG. 1
# Description: (§1) Groups of seven male Sprague-Dawley rats weighing 150-250 g were used. Each animal was anesthetized with sodium pentobarbital (50 mg/kg) and the jugular vein was cannulated with PE50 tubing. This cannula was subcutaneously threaded around the neck and exteriorized dorsally. The cannula was filled with heparin solution ([…]) and sealed with a solid 22-gauge stylet. Animals were housed in individual stainless steel cages and at least 24 hours were allowed for recovery from the surgery. Food and water were provided ad libitum. On the day of the experiment, the heart rate of each rat was monitored with a plethsmograph and the data recorded on a Physioscribe II recorder. One hour was allowed as an equilibration period before any drugs were administered. Drugs were dissolved in normal saline as 0.3% solution and were administered intravenously at a dose of 6 mg/kg. The resting heart rate was then recorded after 1, 3, 5, 10 and 15 minutes following i.v. injection. […] A control group of seven animals was intravenously administered saline solution and was treated exactly in the same manner as the drug-treated groups. The significance of the difference between the effect of saline solution and the drugs under investigation on the resting heart rate and on isoprenaline tachycardia was analyzed using the student's "t" test. Values are given as mean ±S.E. of the mean. […] (.) carteolol HCl, 1c; .circle. propranolone ketoxime HCl, 6a; (.gradient.) timolone ketoxime oxalate, 6b; (Δ) N-isopropyl timolone ketoxime HCl, 6d; carteolone oxime HCl, 6c; and (---) saline solution. […] Drugs were administered to groups of 5 rats using a stomach tube and the heart rate was recorded for 1 hour. […] A control group of 5 rats was treated exactly in the same manner after the oral administration of the appropriate volume of saline solution.
# [2] = tested on: resting heart rate of rats; experiment: Effect on resting heart rate in rats; type: in vivo, rat (male Sprague-Dawley); conditions: 6 mg/kg i.v. (Example 6)
# Description: as §1
# [3] = tested on: Intraocular Pressure (IOP) of Rabbits; experiment: Effect on the Intraocular Pressure (IOP) of Rabbits; type: in vivo, rabbit (male New Zealand albino); conditions: for ocular hypotensive activity (in words): topical, rabbits, dose levels used
# Description: The animals were kept in individual cages with free access to food and water. Intraocular pressure was measured using a Digilab model 30R pneumatonometer. The pneumatonometer readings were checked at least twice a day using the Digilab calibration verifier. All measurements were obtained from unrestrained, unanesthetized rabbits. One drop of 0.5% propacaine (Ophthetic-Allergen Pharmaceuticals, Inc.) diluted 1:2 with saline was instilled in each eye immediately prior to IOP measurement. Drugs were administered as 1 or 2.5% solution in buffer pH 7.4 or in saline in both eyes of a group of at least four rabbits. Another group of at least three rabbits served as control and was administered the carrier only. […] Values are given as means ± standard error (S.E.) of the mean. The significance of the change was determined using the student's t-test.
# [4] = propranolol enantiomers; cited from earlier work
# [5] = tested on: ocular tissues of rabbits; experiment: In vivo distribution-metabolism in ocular tissues of rabbits; conditions: rabbit, in vivo
# Description: Adult male New Zealand albino rabbits weighing 2.5-3.5 kg were used. Standard doses of 100 μl of 1% solution of the drugs in saline solution were administered topically to both eyes of each rabbit. After appropriate time intervals (30, 60 and 120 minutes), the animals were sacrificed. Aqueous humor was obtained by making a single puncture at the limbus using a 25 g×5/8" needle attached to 1 cm^3 syringe. Then the cornea and the iris-ciliary body were isolated. The tissues were pooled and homogenized using a Tekmar SDT tissuemizer in ice cold perchloric acid (0.05M) which contained 0.05% sodium metabisulfite as antioxidant. Samples were then rehomogenized in CH3 OH to prepare 10% homogenates, transferred to micro-filters and centrifuged for 20 minutes at 10000 r/minute to precipitate proteins. Aqueous humor was analyzed as such without any further dilution. Aliquots of 5-20 μl of the 10% tissue homogenate samples were analyzed by HPLC.
# [6] = Table 3, 1% solution, time zero
smiles,measurement,setting,value
"CC(C)NCC(COc1nsnc1N1CCOCC1)=NO.Cl [Compound 6d, 1-(Isopropylamino)-3-[(4-morpholino-1,2,5-thiadiazol-3-yl)oxy]-2-propanone oxime Hydrochloride]",β-antagonist activity,[1],some β-antagonist activity
same,β-adrenergic antagonist activity against isoprenaline-tachycardia,[1],least active
same,activity on resting heart rate (negative chronotropic action),[2],less active
same,activity,[3]; selected dosage level,inactive at the selected dosage level
same,ocular hypotensive activity (in words),[3],low activity at the dose levels used
CC(C)NC[C@@H](O)COc1cccc2ccccc12 [R-(+)-enantiomer],metabolism relative to S-form,[4],metabolized faster than the S-form
CC(C)(C)NCC(O)COc1cccc2c1CCC(=O)N2 (stereo not drawn) [carteolol],detection of parent β-adrenergic antagonist in eye compartments,[5],could not be found in any of the eye compartments
CC(C)NC[C@H](O)COc1cccc2ccccc12 [S-(-)-isomer],potency relative to R-(+)-enantiomer,[4],about 100 times
"CC(C)NCC(O)COc1cccc2ccccc12 (stereo not drawn) [Propranolol HCl 1a, reference compound]",% change after treatment (IOP),"[3]; 1% solution, 30 min.",-9.10%
same,"IOP, treated","[3]; 1% solution, 30 min.",28.0 ± 0.56 mm/Hg
same,% change after treatment (IOP),"[3]; 1% solution, 60 min.",-10.39%
same,"IOP, treated","[3]; 1% solution, 60 min.",27.6 ± 0.62 mm/Hg
same,% change after treatment (IOP),"[3]; 1% solution, 2 hrs.",-5.52%
same,"IOP, treated","[3]; 1% solution, 2 hrs.",29.1 ± 0.38 mm/Hg
same,% change after treatment (IOP),"[3]; 1% solution, 3 hrs.",-11.04%
same,"IOP, treated","[3]; 1% solution, 3 hrs.",27.4 ± 0.54 mm/Hg
same,% change after treatment (IOP),"[3]; 1% solution, 4 hrs.",-8.44%
same,"IOP, treated","[3]; 1% solution, 4 hrs.",28.2 ± 0.48 mm/Hg
same,% change after treatment (IOP),"[3]; 1% solution, 6 hrs.",-5.84%
same,"IOP, treated","[3]; 1% solution, 6 hrs.",29.0 ± 0.45 mm/Hg
same,% change after treatment (IOP),"[3]; 1% solution, 8 hrs.",-1.95%
same,"IOP, treated","[3]; 1% solution, 8 hrs.",30.2 ± 0.43 mm/Hg
same,% change after treatment (IOP),"[3]; 1% solution, time zero",0.00%
same,"IOP, treated","[3]; 1% solution, time zero",30.8 ± 0.40 mm/Hg
same,% change after treatment (IOP),"[3]; 2.5% solution, 30 min.",+8.66%
same,"IOP, treated","[3]; 2.5% solution, 30 min.",27.6 ± 0.56 mm/Hg
same,% change after treatment (IOP),"[3]; 2.5% solution, 60 min.",+9.84%
same,"IOP, treated","[3]; 2.5% solution, 60 min.",27.9 ± 0.60 mm/Hg
same,% change after treatment (IOP),"[3]; 2.5% solution, 2 hrs.",+1.18%
same,"IOP, treated","[3]; 2.5% solution, 2 hrs.",25.7 ± 0.55 mm/Hg
same,% change after treatment (IOP),"[3]; 2.5% solution, 3 hrs.",+1.18%
same,"IOP, treated","[3]; 2.5% solution, 3 hrs.",25.7 ± 0.39 mm/Hg
same,% change after treatment (IOP),"[3]; 2.5% solution, 4 hrs.",+0.79%
same,"IOP, treated","[3]; 2.5% solution, 4 hrs.",25.6 ± 0.46 mm/Hg
same,% change after treatment (IOP),"[3]; 2.5% solution, 6 hrs.",0.00%
same,"IOP, treated","[3]; 2.5% solution, 6 hrs.",25.4 ± 0.54 mm/Hg
same,% change after treatment (IOP),"[3]; 2.5% solution, 8 hrs.",-0.79%
same,"IOP, treated","[3]; 2.5% solution, 8 hrs.",25.2 ± 0.68 mm/Hg
same,% change after treatment (IOP),"[3]; 2.5% solution, time zero",0.00%
same,"IOP, treated","[3]; 2.5% solution, time zero",25.4 ± 0.56 mm/Hg
"CC(C)(C)NCC(O)COc1cccc2c1CCC(=O)N2 (stereo not drawn) [Compound 1c, reference compound]",activity on resting heart rate (negative chronotropic action),[2],lowest activity on the heart rate of rats
"CC(C)(C)NCC(COc1cccc2c1CCC(=O)N2)=NO [Compound 6c, 5-[3-(tert-Butylaminno)-2-(hydroxyimino)propoxy]-3,4-dihydrocarbostyril Hydrochloride]",β-antagonist activity,[1],some β-antagonist activity
same,β-adrenergic antagonist activity against isoprenaline-tachycardia,[1],least active
same,activity on resting heart rate (negative chronotropic action),[2],less active
same,ocular hypotensive activity (in words),[3],low activity at the dose levels used
"CC(C)(C)NCC(O)COc1nsnc1N1CCOCC1 (stereo not drawn) [Timolol maleate 1b, reference compound]",% change after treatment (IOP),"[3]; Table 3, 1% solution, 30 min.",-10.93%
same,"IOP, drug-treated","[3]; Table 3, 1% solution, 30 min.",26.00 ± 1.23 mm/Hg
same,% change after treatment (IOP),"[3]; Table 3, 1% solution, 1 hr.",6.65%
same,"IOP, drug-treated","[3]; Table 3, 1% solution, 1 hr.",27.25 ± 1.12 mm/Hg
same,% change after treatment (IOP),"[3]; Table 3, 1% solution, 2 hr.",6.78%
same,"IOP, drug-treated","[3]; Table 3, 1% solution, 2 hr.",27.21 ± 0.58 mm/Hg
same,% change after treatment (IOP),"[3]; Table 3, 1% solution, 3 hr.",14.35%
same,"IOP, drug-treated","[3]; Table 3, 1% solution, 3 hr.",25.00 ± 0.87 mm/Hg
same,% change after treatment (IOP),"[3]; Table 3, 1% solution, 4 hr.",14.77%
same,"IOP, drug-treated","[3]; Table 3, 1% solution, 4 hr.",24.88 ± 1.00 mm/Hg
same,% change after treatment (IOP),"[3]; Table 3, 1% solution, 5 hr.",16.92%
same,"IOP, drug-treated","[3]; Table 3, 1% solution, 5 hr.",24.25 ± 1.18 mm/Hg
same,% change after treatment (IOP),"[3]; Table 3, 1% solution, 6 hr.",12.37%
same,"IOP, drug-treated","[3]; Table 3, 1% solution, 6 hr.",25.58 ± 0.85 mm/Hg
same,% change after treatment (IOP),"[3]; Table 3, 1% solution, 8 hr.",9.80%
same,"IOP, drug-treated","[3]; Table 3, 1% solution, 8 hr.",26.33 ± 0.40 mm/Hg
same,% change after treatment (IOP),[3]; [6],0.00%
same,"IOP, drug-treated",[3]; [6],29.19 ± 0.78 mm/Hg
